Columns and labels:
Assay in all cases: Zone of inhibition screen, 96 well agar array format
Assay type in all cases: cell-based
Set-up in all cases: scale not given here
[1] = tested on: S. epidermidis (ATCC 12228)
In short: (§1)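 Agar-array screen, 96-well; single compounds vs. strain panel (panel also incl. E. faecium ATCC 49624); antibacterial activity scored.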

E. faecalis (CL 4877) = tested on: E. faecalis (CL 4877)
In short: as §1

S. aureus (ATCC 29213) = conditions: zone of inhibition relative to 1 mg/ml p-chlorobiphenylvancomycin
In short: as §1

[2] = zone of inhibition relative to 1 mg/ml p-chlorobiphenylvancomycin
[3] = zone of inhibition relative to 1 mg/ml stock solution of p-chlorobiphenylvancomycin

| Compound | zone score, S. epidermidis ATCC 12228 [1, 2] | zone score, E. faecalis CL 4877 (E. faecalis (CL 4877); [2]) | zone score, S. aureus ATCC 29213 (S. aureus (ATCC 29213)) | other results |
| --- | --- | --- | --- | --- |
| CC(NC=O)C(=O)NC1C(=O)NC(CC(N)=O)C(=O)NC2C(=O)NC3C(=O)NC(C(=O)NC(C(=O)O)c4cc(O)cc(O)c4-c4cc3ccc4O)C(O)c3ccc(c(Cl)c3)Oc3cc2cc(c3OC2OC(CO)C(O)C(O)C2OC2CC(C)(NCc3ccc(-c4ccc(Cl)cc4)cc3)C(O)C(C)O2)Oc2ccc(cc2Cl)C1O (mixture of isomers) [Compound 325] | 2 | 2 | – | – |
| CC1OC(OC2C(Oc3c4cc5cc3Oc3ccc(cc3Cl)C(O)C3NC(=O)C(NC(=O)C5NC(=O)C(CC(N)=O)NC(=O)C(NC(=O)C(N)CC(N)=O)C(O)c5ccc(c(Cl)c5)O4)c4ccc(O)c(c4)-c4c(O)cc(O)cc4C(C(=O)O)NC3=O)OC(CO)C(O)C2O)CC(C)(NCc2ccc(-c3ccc(Cl)cc3)cc2)C1O (stereo not drawn) [Compound 53] | – | – | – | zone score, S. epidermidis ATCC 12228 [1, 3]: 2; zone score, E. faecalis CL 4877 (E. faecalis (CL 4877); [3]): 2 |
| CC(=O)N1CCC(C(=O)NC2C(=O)NC(CC(N)=O)C(=O)NC3C(=O)NC4C(=O)NC(C(=O)NC(C(=O)O)c5cc(O)cc(O)c5-c5cc4ccc5O)C(O)c4ccc(c(Cl)c4)Oc4cc3cc(c4OC3OC(CO)C(O)C(O)C3OC3CC(C)(NCc4ccc(-c5ccc(Cl)cc5)cc4)C(O)C(C)O3)Oc3ccc(cc3Cl)C2O)CC1 (stereo not drawn) [Compound 99] | – | – | – | zone score, S. epidermidis ATCC 12228 [1, 3]: 2 |
| Cc1cn(CC(=O)NC2C(=O)NC(CC(N)=O)C(=O)NC3C(=O)NC4C(=O)NC(C(=O)NC(C(=O)O)c5cc(O)cc(O)c5-c5cc4ccc5O)C(O)c4ccc(c(Cl)c4)Oc4cc3cc(c4OC3OC(CO)C(O)C(O)C3OC3CC(C)(NCc4ccc(-c5ccc(Cl)cc5)cc4)C(O)C(C)O3)Oc3ccc(cc3Cl)C2O)c(=O)[nH]c1=O (stereo not drawn) [Compound 207] | 2 | – | – | – |
| Cc1cnc(C(=O)NC2C(=O)NC(CC(N)=O)C(=O)NC3C(=O)NC4C(=O)NC(C(=O)NC(C(=O)O)c5cc(O)cc(O)c5-c5cc4ccc5O)C(O)c4ccc(c(Cl)c4)Oc4cc3cc(c4OC3OC(CO)C(O)C(O)C3OC3CC(C)(NCc4ccc(-c5ccc(Cl)cc5)cc4)C(O)C(C)O3)Oc3ccc(cc3Cl)C2O)cn1 (stereo not drawn) [Compound 243] | – | 2 | 2 | – |
| CC1OC(OC2C(Oc3c4cc5cc3Oc3ccc(cc3Cl)C(O)C3NC(=O)C(NC(=O)C5NC(=O)C(CC(N)=O)NC(=O)C(NC(=O)c5cccc(SC(F)(F)F)c5)C(O)c5ccc(c(Cl)c5)O4)c4ccc(O)c(c4)-c4c(O)cc(O)cc4C(C(=O)O)NC3=O)OC(CO)C(O)C2O)CC(C)(NCc2ccc(-c3ccc(Cl)cc3)cc2)C1O (stereo not drawn) [Compound 248] | – | 2 | 2 | – |
| CC(=O)Oc1cc(C(=O)NC2C(=O)NC(CC(N)=O)C(=O)NC3C(=O)NC4C(=O)NC(C(=O)NC(C(=O)O)c5cc(O)cc(O)c5-c5cc4ccc5O)C(O)c4ccc(c(Cl)c4)Oc4cc3cc(c4OC3OC(CO)C(O)C(O)C3OC3CC(C)(NCc4ccc(-c5ccc(Cl)cc5)cc4)C(O)C(C)O3)Oc3ccc(cc3Cl)C2O)cc(OC(C)=O)c1OC(C)=O (stereo not drawn) [Compound 250] | 2 | – | – | – |
| CC1OC(OC2C(Oc3c4cc5cc3Oc3ccc(cc3Cl)C(O)C3NC(=O)C(NC(=O)C5NC(=O)C(CC(N)=O)NC(=O)C(NC(=O)Cc5ccc(F)c(F)c5)C(O)c5ccc(c(Cl)c5)O4)c4ccc(O)c(c4)-c4c(O)cc(O)cc4C(C(=O)O)NC3=O)OC(CO)C(O)C2O)CC(C)(NCc2ccc(-c3ccc(Cl)cc3)cc2)C1O (stereo not drawn) [Compound 252] | 2 | – | – | – |
| CC1OC(OC2C(Oc3c4cc5cc3Oc3ccc(cc3Cl)C(O)C3NC(=O)C(NC(=O)C5NC(=O)C(CC(N)=O)NC(=O)C(NC(=O)c5cc(C(F)(F)F)cc(C(F)(F)F)c5)C(O)c5ccc(c(Cl)c5)O4)c4ccc(O)c(c4)-c4c(O)cc(O)cc4C(C(=O)O)NC3=O)OC(CO)C(O)C2O)CC(C)(NCc2ccc(-c3ccc(Cl)cc3)cc2)C1O (stereo not drawn) [Compound 254] | – | 2 | 2 | – |
| CC1OC(OC2C(Oc3c4cc5cc3Oc3ccc(cc3Cl)C(O)C3NC(=O)C(NC(=O)C5NC(=O)C(CC(N)=O)NC(=O)C(NC(=O)c5cc(O)cc(O)c5)C(O)c5ccc(c(Cl)c5)O4)c4ccc(O)c(c4)-c4c(O)cc(O)cc4C(C(=O)O)NC3=O)OC(CO)C(O)C2O)CC(C)(NCc2ccc(-c3ccc(Cl)cc3)cc2)C1O (stereo not drawn) [Compound 255] | – | 2 | 2 | – |
| C[C@H]1O[C@H](O[C@H]2[C@H](Oc3c4cc5cc3Oc3ccc(cc3Cl)[C@@H](O)[C@@H](NC(=O)c3nc(N)n[nH]3)C(=O)N[C@@H](CC(N)=O)C(=O)N[C@H]5C(=O)N[C@H]3C(=O)N[C@H](C(=O)N[C@@H](C(=O)O)c5cc(O)cc(O)c5-c5cc3ccc5O)[C@H](O)c3ccc(c(Cl)c3)O4)O[C@H](CO)[C@@H](O)[C@@H]2O)C[C@@](C)(NCc2ccc(-c3ccc(Cl)cc3)cc2)[C@H]1O [Compound 256] | – | 2 | 2 | – |
| CC1OC(OC2C(Oc3c4cc5cc3Oc3ccc(cc3Cl)C(O)C3NC(=O)C(NC(=O)C5NC(=O)C(CC(N)=O)NC(=O)C(NC(=O)c5cccc(F)c5)C(O)c5ccc(c(Cl)c5)O4)c4ccc(O)c(c4)-c4c(O)cc(O)cc4C(C(=O)O)NC3=O)OC(CO)C(O)C2O)CC(C)(NCc2ccc(-c3ccc(Cl)cc3)cc2)C1O (stereo not drawn) [Compound 259] | 2 | – | – | – |
| C[C@H]1O[C@H](O[C@H]2[C@H](Oc3c4cc5cc3Oc3ccc(cc3Cl)[C@@H](O)[C@@H](NC(=O)c3ccoc3)C(=O)N[C@@H](CC(N)=O)C(=O)N[C@H]5C(=O)N[C@H]3C(=O)N[C@H](C(=O)N[C@@H](C(=O)O)c5cc(O)cc(O)c5-c5cc3ccc5O)[C@H](O)c3ccc(c(Cl)c3)O4)O[C@H](CO)[C@@H](O)[C@@H]2O)C[C@@](C)(NCc2ccc(-c3ccc(Cl)cc3)cc2)[C@H]1O [Compound 260] | 2 | – | – | – |
| CC(=O)Nc1ccc(C(=O)NC2C(=O)NC(CC(N)=O)C(=O)NC3C(=O)NC4C(=O)NC(C(=O)NC(C(=O)O)c5cc(O)cc(O)c5-c5cc4ccc5O)C(O)c4ccc(c(Cl)c4)Oc4cc3cc(c4OC3OC(CO)C(O)C(O)C3OC3CC(C)(NCc4ccc(-c5ccc(Cl)cc5)cc4)C(O)C(C)O3)Oc3ccc(cc3Cl)C2O)cc1 (stereo not drawn) [Compound 265] | – | 2 | 2 | – |
| COc1ccc(C=CC(=O)NC2C(=O)NC(CC(N)=O)C(=O)NC3C(=O)NC4C(=O)NC(C(=O)NC(C(=O)O)c5cc(O)cc(O)c5-c5cc4ccc5O)C(O)c4ccc(c(Cl)c4)Oc4cc3cc(c4OC3OC(CO)C(O)C(O)C3OC3CC(C)(NCc4ccc(-c5ccc(Cl)cc5)cc4)C(O)C(C)O3)Oc3ccc(cc3Cl)C2O)cc1 (stereo not drawn) [Compound 273] | 2 | – | – | – |
| CC1OC(OC2C(Oc3c4cc5cc3Oc3ccc(cc3Cl)C(O)C3NC(=O)C(NC(=O)C5NC(=O)C(CC(N)=O)NC(=O)C(NC(=O)c5ccc(O)nc5)C(O)c5ccc(c(Cl)c5)O4)c4ccc(O)c(c4)-c4c(O)cc(O)cc4C(C(=O)O)NC3=O)OC(CO)C(O)C2O)CC(C)(NCc2ccc(-c3ccc(Cl)cc3)cc2)C1O (stereo not drawn) [Compound 276] | 2 | – | – | – |
| CC(=O)CCCCC(=O)NC1C(=O)NC(CC(N)=O)C(=O)NC2C(=O)NC3C(=O)NC(C(=O)NC(C(=O)O)c4cc(O)cc(O)c4-c4cc3ccc4O)C(O)c3ccc(c(Cl)c3)Oc3cc2cc(c3OC2OC(CO)C(O)C(O)C2OC2CC(C)(NCc3ccc(-c4ccc(Cl)cc4)cc3)C(O)C(C)O2)Oc2ccc(cc2Cl)C1O (stereo not drawn) [Compound 278] | – | 2 | 2 | – |
| CC1OC(OC2C(Oc3c4cc5cc3Oc3ccc(cc3Cl)C(O)C3NC(=O)C(NC(=O)C5NC(=O)C(CC(N)=O)NC(=O)C(NC(=O)c5ccc(=O)oc5)C(O)c5ccc(c(Cl)c5)O4)c4ccc(O)c(c4)-c4c(O)cc(O)cc4C(C(=O)O)NC3=O)OC(CO)C(O)C2O)CC(C)(NCc2ccc(-c3ccc(Cl)cc3)cc2)C1O (stereo not drawn) [Compound 282] | – | 2 | 2 | – |
| COC(=O)C=CC(=O)NC1C(=O)NC(CC(N)=O)C(=O)NC2C(=O)NC3C(=O)NC(C(=O)NC(C(=O)O)c4cc(O)cc(O)c4-c4cc3ccc4O)C(O)c3ccc(c(Cl)c3)Oc3cc2cc(c3OC2OC(CO)C(O)C(O)C2OC2CC(C)(NCc3ccc(-c4ccc(Cl)cc4)cc3)C(O)C(C)O2)Oc2ccc(cc2Cl)C1O (stereo not drawn) [Compound 297] | – | 2 | 2 | – |
| CC1OC(OC2C(Oc3c4cc5cc3Oc3ccc(cc3Cl)C(O)C3NC(=O)C(NC(=O)C5NC(=O)C(CC(N)=O)NC(=O)C(NC(=O)c5ccc(=O)[nH]n5)C(O)c5ccc(c(Cl)c5)O4)c4ccc(O)c(c4)-c4c(O)cc(O)cc4C(C(=O)O)NC3=O)OC(CO)C(O)C2O)CC(C)(NCc2ccc(-c3ccc(Cl)cc3)cc2)C1O (stereo not drawn) [Compound 298] | – | 2 | 2 | – |
| COC(=O)CCCC(=O)NC1C(=O)NC(CC(N)=O)C(=O)NC2C(=O)NC3C(=O)NC(C(=O)NC(C(=O)O)c4cc(O)cc(O)c4-c4cc3ccc4O)C(O)c3ccc(c(Cl)c3)Oc3cc2cc(c3OC2OC(CO)C(O)C(O)C2OC2CC(C)(NCc3ccc(-c4ccc(Cl)cc4)cc3)C(O)C(C)O2)Oc2ccc(cc2Cl)C1O (stereo not drawn) [Compound 304] | 2 | – | – | – |
| COC(=O)CCC(=O)NC1C(=O)NC(CC(N)=O)C(=O)NC2C(=O)NC3C(=O)NC(C(=O)NC(C(=O)O)c4cc(O)cc(O)c4-c4cc3ccc4O)C(O)c3ccc(c(Cl)c3)Oc3cc2cc(c3OC2OC(CO)C(O)C(O)C2OC2CC(C)(NCc3ccc(-c4ccc(Cl)cc4)cc3)C(O)C(C)O2)Oc2ccc(cc2Cl)C1O (stereo not drawn) [Compound 305] | 2 | – | – | – |
| CC1OC(OC2C(Oc3c4cc5cc3Oc3ccc(cc3Cl)C(O)C3NC(=O)C(NC(=O)C5NC(=O)C(CC(N)=O)NC(=O)C(NC(=O)Cc5cccs5)C(O)c5ccc(c(Cl)c5)O4)c4ccc(O)c(c4)-c4c(O)cc(O)cc4C(C(=O)O)NC3=O)OC(CO)C(O)C2O)CC(C)(NCc2ccc(-c3ccc(Cl)cc3)cc2)C1O (stereo not drawn) [Compound 318] | 2 | – | – | – |
| CC1OC(OC2C(Oc3c4cc5cc3Oc3ccc(cc3Cl)C(O)C3NC(=O)C(NC(=O)C5NC(=O)C(CC(N)=O)NC(=O)C(NC(=O)C(N)=O)C(O)c5ccc(c(Cl)c5)O4)c4ccc(O)c(c4)-c4c(O)cc(O)cc4C(C(=O)O)NC3=O)OC(CO)C(O)C2O)CC(C)(NCc2ccc(-c3ccc(Cl)cc3)cc2)C1O (stereo not drawn) [Compound 327] | 2 | – | – | – |
